Reference: patent US20220378707A1, “1-(((2S,3S,4S)-3-ETHYL-4-FLUORO-5-OXOPYRROLIDIN-2-YL)METHOXY)-7-METHOXYISOQUINOLINE-6-CARBOXAMIDE COMBINATIONS AND ORAL DOSAGE FORMS” (Pfizer Inc., priority 2019, published 2022)

System: coronary artery smooth muscle cells+(IL-1p, TNFα and IFNγ)
Experiment: BioMAP CASM3C system
Format: cell-based, human
Settings: Th1 vascular smooth muscle inflammation; concentrations of FIGS. 12-14
Description: The BioMAP systems consist of human primary cell-based systems designed to model different aspects of the human body in an in vitro format. The 12 systems tested characterized the test compounds across a broad set of systems modeling various human disease states. BioMAP systems were constructed with one or more primary cell types from healthy human donors, with stimuli (such as cytokines or growth factors) added to capture relevant signaling networks that naturally occur in human tissue or pathological conditions. […] Soluble factors from supernatants were quantified using either HTRF® detection, bead-based multiplex immunoassay or capture ELISA. Overt adverse effects of test agents on cell proliferation and viability (cytotoxicity) were detected by sulforhodamine B (SRB) staining, for adherent cells, and alamarBlue® reduction for cells in suspension. […] Each tested compound generated a signature BioMAP profile that was created from the changes in protein biomarker readouts within individual system environments. […] Each readout was measured quantitatively by immune-based methods that detected protein (e.g., ELISA) or functional assays that measured proliferation and viability. BioMAP readouts were diverse and included cell surface receptors, cytokines, chemokines, matrix molecules and enzymes. […]

Compound | Inhibition of biomarker readouts in the CASM3C system
C[C@@H]1CCN(C(=O)CC#N)C[C@@H]1N(C)c1ncnc2[nH]ccc12 [tofacitinib, 3-((3R,4R)-4-Methyl-3-(methyl(7H-pyrrolo[2,3-d]pyrimidin-4-yl)amino)piperidin-1-yl)-3-oxopropanenitrile] | MIG
CC[C@@H]1[C@H](F)C(=O)N[C@@H]1COc1nccc2cc(C(N)=O)c(OC)cc12 [PF-06650833, 1-(((2S,3S,4S)-3-Ethyl-4-fluoro-5-oxopyrrolidin-2-yl)methoxy)-7-methoxyisoquinoline-6-carboxamide] | IL-6
